Legend:
[1] = target: T1, human orexin-2 receptor (Homo sapiens, UniProt O43614); assay: Intracellular calcium measurement (FLIPR Tetra), orexin receptor antagonistic activity, OX2; assay type: cell-based; settings: CHO cells expressing human orexin-2 receptor, 3 nM orexin-A
T1 construct: expressed in transfected cells; host or cells: CHO (Chinese hamster ovary) cells, kept under G418 selection
T1 sequence (O43614 1-444): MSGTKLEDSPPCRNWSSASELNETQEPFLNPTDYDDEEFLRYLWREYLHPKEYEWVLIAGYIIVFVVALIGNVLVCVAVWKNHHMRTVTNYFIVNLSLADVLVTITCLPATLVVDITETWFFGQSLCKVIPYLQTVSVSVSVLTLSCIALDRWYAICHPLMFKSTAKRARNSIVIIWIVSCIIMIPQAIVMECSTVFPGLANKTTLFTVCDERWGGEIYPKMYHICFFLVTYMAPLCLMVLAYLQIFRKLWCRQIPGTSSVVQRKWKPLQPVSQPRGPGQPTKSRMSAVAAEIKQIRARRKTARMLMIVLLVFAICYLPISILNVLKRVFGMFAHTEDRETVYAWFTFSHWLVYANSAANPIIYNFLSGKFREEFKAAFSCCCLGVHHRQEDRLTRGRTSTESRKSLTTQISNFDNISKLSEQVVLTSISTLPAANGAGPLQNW
Method in brief: (§1)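 Recombinant CHO cells expressing human OX1 or OX2, loaded with fluo-4 AM plus probenecid, were preincubated with antagonist 10 min, then stimulated with 3 nM human orexin-A. Peak fluorescence was compared with vehicle; IC50 derived, sometimes normalized to an on-plate reference compound; two pipetting/cell-splitting conditions were used.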

[2] = target: T2, human orexin-1 receptor (Homo sapiens, UniProt O43613); assay: Intracellular calcium measurement (FLIPR Tetra), orexin receptor antagonistic activity, OX1; assay type: cell-based; settings: CHO cells expressing human orexin-1 receptor, 3 nM orexin-A
T2 construct: expressed in transfected cells; host or cells: CHO (Chinese hamster ovary) cells, kept under G418 selection
T2 sequence (O43613 1-425): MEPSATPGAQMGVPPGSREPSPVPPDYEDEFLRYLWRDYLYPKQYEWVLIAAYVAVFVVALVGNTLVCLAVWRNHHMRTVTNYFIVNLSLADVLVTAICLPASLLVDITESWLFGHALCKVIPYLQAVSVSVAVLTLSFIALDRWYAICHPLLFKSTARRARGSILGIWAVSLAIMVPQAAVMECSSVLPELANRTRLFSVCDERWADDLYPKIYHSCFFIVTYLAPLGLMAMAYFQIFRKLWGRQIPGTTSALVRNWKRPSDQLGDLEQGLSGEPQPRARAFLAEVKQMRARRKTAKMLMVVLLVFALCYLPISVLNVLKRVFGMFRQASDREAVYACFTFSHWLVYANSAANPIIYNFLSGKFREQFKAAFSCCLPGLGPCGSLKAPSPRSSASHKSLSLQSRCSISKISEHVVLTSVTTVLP
Method in brief: as §1

[3] = conditions B, normalized (*) using IC50 of on-plate reference compound

Row | SMILES | IC50 [1, 3] | IC50 [2, 3] | IC50 ([1]; conditions B) | IC50 ([2]; conditions B) | other results
1 | Cc1ccc(-c2scnc2C(=O)N(CCc2c[nH]c3ccc(F)cc23)CC2CC2)cc1C [Example 274, 5-(3,4-Dimethyl-phenyl)-thiazole-4-carboxylic acid cyclopropylmethyl-[2-(5-fluoro-1H-indol-3-yl)-ethyl]-amide] | 66 nM | 155 nM | – | – | –
2 | COc1cc(CCN(CC2CC2)C(=O)c2nc(C)sc2-c2ccc(C)c(C)c2)c(OC)cc1I [Example 213, 5-(3,4-Dimethyl-phenyl)-2-methyl-thiazole-4-carboxylic acid cyclopropylmethyl-[2-(4-iodo-2,5-dimethoxy-phenyl)-ethyl]-amide] | – | – | 153 nM | 157 nM | –
3 | CCCN(CCc1ccc(OC)c(OC)c1)C(=O)c1nc(C)sc1-c1ccc(C)c(C)c1 [Example 111, 5-(3,4-Dimethyl-phenyl)-2-methyl-thiazole-4-carboxylic acid [2-(3,4-dimethoxy-phenyl)-ethyl]-propyl-amide] | – | – | 2 nM | 18 nM | –
4 | CC(C)N(CCc1c[nH]c2ccc(F)cc12)C(=O)c1nccnc1-c1ccccc1 [Example 287, 3-Phenyl-pyrazine-2-carboxylic acid [2-(5-fluoro-1H-indol-3-yl)-ethyl]-isopropyl-amide] | 585 nM | 2440 nM | – | – | –
5 | COc1ccc(C(O)CN(CC2CC2)C(=O)c2ncsc2-c2cccc(C(F)(F)F)c2)cc1OC (stereo not shown) [Example 85, 5-(3-Trifluoromethyl-phenyl)-thiazole-4-carboxylic acid cyclopropylmethyl-[2-(3,4-dimethoxy-phenyl)-2-hydroxy-ethyl]-amide] | – | – | – | – | IC50 ([1]; conditions A): 551 nM; IC50 ([2]; conditions A): > 10000 nM
6 | COCCN(CCc1ccc(OC)c(OC)c1)C(=O)c1nc(C)sc1-c1ccc(C)c(C)c1 [Example 129, 5-(3,4-Dimethyl-phenyl)-2-methyl-thiazole-4-carboxylic acid [2-(3,4-dimethoxy-phenyl)-ethyl]-(2-methoxy-ethyl)-amide] | – | – | 5 nM | 40 nM | –
7 | COc1cccc(-c2cnccc2C(=O)N(CCc2ccc(OC)c(OC)c2)CC2CC2)c1 [Example 389, N-Cyclopropylmethyl-N-[2-(3,4-dimethoxy-phenyl)-ethyl]-3-(3-methoxy-phenyl)-isonicotinamide] | – | – | 6 nM | 282 nM | –
8 | COc1ccc(-c2cccnc2C(=O)N(CCc2cn(C)c3ccccc23)CC2CC2)cn1 [Example 352, 6′-Methoxy-[3,3′]bipyridinyl-2-carboxylic acid cyclopropylmethyl-[2-(1-methyl-1H-indol-3-yl)-ethyl]-amide] | 37 nM | 20 nM | – | – | –
9 | COc1ncc(-c2nccnc2C(=O)N(CCc2c[nH]c3c(C)cccc23)CC2CC2)cn1 [Example 439, 3-(2-Methoxy-pyrimidin-5-yl)-pyrazine-2-carboxylic acid cyclopropylmethyl-[2-(7-methyl-1H-indol-3-yl)-ethyl]-amide] | 28 nM | 461 nM | – | – | –
10 | Cc1cccc2c(CCN(CC3CC3)C(=O)c3nccnc3-c3ccccc3)c[nH]c12 [Example 326, 3-Phenyl-pyrazine-2-carboxylic acid cyclopropylmethyl-[2-(7-methyl-1H-indol-3-yl)-ethyl]-amide] | 8 nM | 76 nM | – | – | –
11 | COc1ccc(CCN(CC2CC2)C(=O)c2nc(C)oc2-c2cccc(C(F)(F)F)c2)cc1OC [Example 43, 2-Methyl-5-(3-trifluoromethyl-phenyl)-oxazole-4-carboxylic acid cyclopropylmethyl-[2-(3,4-dimethoxy-phenyl)-ethyl]-amide] | – | – | – | – | IC50 ([1]; conditions A): 18 nM; IC50 ([2]; conditions A): 3120 nM
12 | COc1ccc(CCN(C(=O)c2nc(C)sc2-c2ccc(C)c(C)c2)C2CC2)cc1OC [Example 123, 5-(3,4-Dimethyl-phenyl)-2-methyl-thiazole-4-carboxylic acid cyclopropyl-[2-(3,4-dimethoxy-phenyl)-ethyl]-amide] | – | – | 4 nM | 26 nM | –
13 | Cc1nc(C(=O)N(CCc2c[nH]c3ccc(F)cc23)CC2CC2)c(-c2ccc(CO)nc2)s1 [Example 423, 5-(6-Hydroxymethyl-pyridin-3-yl)-2-methyl-thiazole-4-carboxylic acid cyclopropylmethyl-[2-(5-fluoro-1H-indol-3-yl)-ethyl]-amide] | 53 nM | 1610 nM | – | – | –
14 | O=C(c1cncnc1-c1ccccc1)N(CCc1c[nH]c2cc(F)c(Cl)cc12)CC1CC1 [Example 471, 4-Phenyl-pyrimidine-5-carboxylic acid [2-(5-chloro-6-fluoro-1H-indol-3-yl)-ethyl]-cyclopropylmethyl-amide] | 25 nM | 97 nM | – | – | –
15 | COC(=O)CN(CCc1c[nH]c2ccc(F)cc12)C(=O)c1nccnc1-c1ccccc1 [Example 286, [[2-(5-Fluoro-1H-indol-3-yl)-ethyl]-(3-phenyl-pyrazine-2-carbonyl)-amino]-acetic acid methyl ester] | 322 nM | 2730 nM | – | – | –
16 | Cc1nc(C(=O)N(CCc2c[nH]c3ccc(F)cc23)CC2CC2)c(-c2ccc3cc[nH]c3c2)s1 [Example 430, 5-(1H-Indol-6-yl)-2-methyl-thiazole-4-carboxylic acid cyclopropylmethyl-[2-(5-fluoro-1H-indol-3-yl)-ethyl]-amide] | 21 nM | 104 nM | – | – | –

Continued, in another order:

Row | IC50 [1, 3] | IC50 [2, 3] | IC50 ([1]; conditions B) | IC50 ([2]; conditions B) | SMILES | other results
17 | – | – | 954 nM | > 10000 nM | Cc1cccc(-c2sc(N)nc2C(=O)N(CCc2csc(N)n2)CC2CC2)c1 [Example 177, 2-Amino-5-m-tolyl-thiazole-4-carboxylic acid [2-(2-amino-thiazol-4-yl)-ethyl]-cyclopropylmethyl-amide] | –
18 | – | – | 4 nM | 149 nM | COc1ccc(CCN(CC(F)(F)F)C(=O)c2nc(N)sc2-c2cccc(C)c2)cc1OC [Example 119, 2-Amino-5-m-tolyl-thiazole-4-carboxylic acid [2-(3,4-dimethoxy-phenyl)-ethyl]-(2,2,2-trifluoro-ethyl)-amide] | –
19 | 4 nM | 34 nM | – | – | COc1ccc(-c2sc(C)nc2C(=O)N(CCc2c[nH]c3ccc(F)cc23)CC2CC2)cn1 [Example 421, 5-(6-Methoxy-pyridin-3-yl)-2-methyl-thiazole-4-carboxylic acid cyclopropylmethyl-[2-(5-fluoro-1H-indol-3-yl)-ethyl]-amide] | –
20 | – | – | 18 nM | 81 nM | COc1ccc(CCN(CC2CC2)C(=O)c2nc(N)sc2-c2cccc(C)c2)cc1Br [Example 163, 2-Amino-5-m-tolyl-thiazole-4-carboxylic acid [2-(3-bromo-4-methoxy-phenyl)-ethyl]-cyclopropylmethyl-amide] | –
21 | – | – | 65 nM | 1070 nM | Cc1nc(C(=O)N(CCc2ccc3c(c2)OCCO3)CC2CC2)c(-c2ccc(C)c(C)c2)s1 [Example 198, 5-(3,4-Dimethyl-phenyl)-2-methyl-thiazole-4-carboxylic acid cyclopropylmethyl-[2-(2,3-dihydro-benzo[1,4]dioxin-6-yl)-ethyl]-amide] | –
22 | – | – | 943 nM | 739 nM | CCc1nc(I)cn1CCN(CC1CC1)C(=O)c1nc(N)sc1-c1cccc(C)c1 [Example 178, 2-Amino-5-m-tolyl-thiazole-4-carboxylic acid cyclopropylmethyl-[2-(2-ethyl-4-iodo-imidazol-1-yl)-ethyl]-amide] | –
23 | – | – | 6 nM | 10 nM | COc1ccc(CCN(CC2CC2)C(=O)c2nc(N)sc2-c2cccc(C)c2)cc1SC [Example 161, 2-Amino-5-m-tolyl-thiazole-4-carboxylic acid cyclopropylmethyl-[2-(4-methoxy-3-methylsulfanyl-phenyl)-ethyl]-amide] | –

Reference: patent publication US20110212968A1, “PHENETHYLAMIDE DERIVATIVES AND THEIR HETEROCYCLIC ANALOGUES” (priority 2008, published 2011)
